Measurements from BigSolDB 2.1.

Cc1nc(N)nc(N)n1
solubility (mole fraction)
Details | 283.15 K | 288.15 K | 293.15 K | 298.15 K | 303.15 K | 308.15 K | 313.15 K | 318.15 K | 323.15 K
in 1,4-dioxane | 0.000584 | 0.000676 | 0.000782 | 0.000899 | 0.00107 | 0.00126 | 0.00152 | 0.00177 | 0.00205
in DMF | 0.00103 | 0.0012 | 0.00133 | 0.00151 | 0.0018 | 0.00209 | 0.00247 | 0.00283 | 0.00325
in acetonitrile | 9.52e-05 | 0.000117 | 0.000141 | 0.00018 | 0.000228 | 0.000287 | 0.000345 | 0.000426 | 0.000523
in ethanol | 0.000226 | 0.000258 | 0.000315 | 0.000386 | 0.000485 | 0.000592 | 0.000688 | 0.000845 | 0.000999
in ethyl acetate | 0.000671 | 0.00078 | 0.000928 | 0.00104 | 0.00125 | 0.00142 | 0.00171 | 0.00198 | 0.00229
in ethylene glycol | 0.000797 | 0.000935 | 0.00109 | 0.00121 | 0.00145 | 0.00164 | 0.00193 | 0.00225 | 0.00259
in isobutanol | 0.000392 | 0.000454 | 0.000551 | 0.000663 | 0.000792 | 0.000931 | 0.0011 | 0.00127 | 0.00153
in isopropanol | 0.00027 | 0.000325 | 0.000393 | 0.00047 | 0.000587 | 0.000698 | 0.000808 | 0.000973 | 0.00115
in methanol | 0.000159 | 0.000192 | 0.000235 | 0.000289 | 0.000365 | 0.000434 | 0.000553 | 0.000636 | 0.000782
in n-butanol | 0.000477 | 0.000536 | 0.00064 | 0.000764 | 0.000919 | 0.00111 | 0.00131 | 0.0015 | 0.00177
in n-propanol | 0.000321 | 0.000385 | 0.000452 | 0.00054 | 0.000689 | 0.000836 | 0.000985 | 0.00115 | 0.00132
in water | 0.000122 | 0.000146 | 0.000182 | 0.000228 | 0.000285 | 0.000362 | 0.000426 | 0.000521 | 0.000633
